# Laboratory results: patent US9403829B2, “Pharmaceutical compositions of 7-(6-(2-hydroxypropan-2-yl)pyridin-3-yl)-1-((trans)-4-methoxycyclohexyl)-3,4-dihydropyrazino [2,3-b]pyrazin-2(1H)-one, a solid form thereof and methods of their use” (Signal Pharmaceuticals, LLC, priority 2011, dated 2016)
# Tests used:
# [1] = Phase 1 food effect study (Part 2), single 20-mg oral dose of Compound A tablet, fed vs fasted; assay type: in vivo, human; details: for CL/F / Tmax / AUC(0-inf) / Cmax / half-life / AUC(0-t) / Vd/F: single 20-mg oral dose of Compound A tablet; for CL/F / AUC(0-inf) / Cmax / half-life / AUC(0-t) / Vd/F: geometric mean; for Tmax / AUC(0-inf) / Cmax / half-life / AUC(0-t) / Vd/F: male, human, plasma, po, 20 mg; for Tmax: median, read-out: Tmax; for AUC(0-t): read-out: AUC0-24; for Vd/F: read-out: Vz/F
# Protocol: The primary objectives of this study are: to characterize the biotransformation and excretion of Compound A following a single 20 mg oral dose of Compound A capsule containing a microtracer of [^14C]-Compound A solution in healthy male subjects (Part 1) and to evaluate the effect of a high-fat meal on the pharmacokinetics (PK) of Compound A following a single oral 20-mg dose of Compound A tablet (Part 2).
# Part 2 design: Part 2 will be a 2-period crossover study; in Period 1, subjects (n=12) will be randomized to receive either an oral 20 mg dose of Compound A tablet (Treatment B) under fed (n=6) or fasted (n=6) conditions. In Period 2, subjects will receive Treatment B under converse conditions based on treatment assignment in Period 1. After screening, subjects (n=12) eligible for participation in the study will return to the study center on Day −1 for baseline assessments. Subjects who continue to be qualified for participation in the study will be randomized and enrolled in the study on the morning of Day 1. Subjects (n=6) will be enrolled and randomized to receive Treatment B under fed or fasted conditions on the morning of Day 1 after fasting for at least 8 hours. Fed subjects will be served a standard high fat meal breakfast, or its equivalent, that must be consumed within 30 minutes from serving. Dosing must occur 30 minutes (+5 minutes) after serving a subject breakfast. All subjects (fed and fasted) will fast (not to consume any food) until 4 hours post dose. Water will be allowed during the fasting period. Subjects will be domiciled at the study center from Day −1 until the morning of Day 5 of each period. Subjects will be discharged from the study center on the morning of Day 5 upon satisfactory safety review and completion of study-related procedures. Safety and tolerability data will be monitored and collected following each dosing period. Periods 1 and 2 will be separated by a washout period of at least 7 days (no more than 10 days) from prior dose to the next dose. In certain instances, a longer washout may be acceptable if previously agreed to.
# Serial blood samples (10 mL) will be collected at predose (0 hour) and at 0.5, 1, 2, 3, 6, 12, 24, 48, 72 and 96 hours post dose for the determination of plasma concentrations of Compound A and the O-desmethyl metabolite of Compound A. Safety will be monitored throughout the study; safety evaluations will include AE reporting, physical examinations, vital sign measurements, ECG, and clinical laboratory safety tests. Concomitant medications will be assessed and recorded throughout the study as well. In addition, during the subjects' stay-in-the clinic (i.e., confinement period), fasting plasma glucose levels will be monitored as part of the clinical laboratory safety tests. For Parts 1 and 2, all subjects will return to the clinic within 7 to days after the last dose for follow up safety assessments. In the event that a subject discontinues prematurely from the study, every reasonable effort should be made (and documented) to ensure that all procedures and evaluations scheduled for the follow-up visit are performed at the time of discontinuation or a follow-up visit should be scheduled within 7 to days from the discontinuation day.
# Part 2 dosing: In Part 2, subjects will fast overnight for at least 8 hours prior to Compound A administration. On the morning of Day 1, each subject will receive a 20-mg tablet of Compound A orally. Subjects randomized to receive Compound A under fed conditions will be a served a standard high fat meal (breakfast).
# The standard high fat meal or its equivalent must be consumed within minutes of serving. Dosing must occur 30 minutes (+5 minutes) after serving the meal. The tablet will be administered with approximately 240 mL of non-carbonated, room temperature water. After dosing, subjects will continue to fast until 4 hours after dosing.
# [2] = Phase 1 crossover pharmacokinetic study of tablet and capsule formulations, single oral dose; assay type: in vivo, human
# Protocol: Certain formulations provided herein were evaluated in a Phase 1, open-label, randomized, crossover study.
# On Day 1 of Period 1, following an overnight fast of at least 8 hours, subjects were randomized to one of the following 3 sequences to receive Treatment A, B or C (Table 30).
# In Treatment A, one 20-mg reference Compound A API-in-capsule was administered orally after at least 8 hour fast with 240 mL of non-carbonated, room temperature water. In Treatment B, one 20-mg tablet of Compound A (Tablet Formulation XIII) was administered under fasted conditions. In Treatment C, four 5-mg tablets of Compound A (Tablet Formulation XIV) were administered under fasted conditions. The 20-mg tablet and four 5-mg tablets were administered orally after at least 8 hour fast with 240 mL of non-carbonated, room temperature water.
# For each period, serial blood samples were collected before dosing (zero hour) and at 0.5, 1, 1.5, 2, 2.5, 3, 4, 6, 8, 12, 24, 48, 72, and 96 hours after dosing. Plasma concentrations of Compound A were determined for determining PK parameters, such as […], AUC0-∞, Cmax, Tmax, t1/2, CL/F, and Vz/F for Compound A. Plasma PK parameters were calculated using non compartmental methods. Analyses of variance (ANOVA) were performed on the natural log-transformed AUC0-t, AUC0-∞, and Cmax for Compound A. The geometric mean ratios (test/reference) and their 90% confidence intervals were also calculated. For Tmax, non parametric analysis was used to produce median differences.
# [3] = Gravimetric vapour sorption (DVS) hygroscopicity; assay type: physicochemical; details: for water uptake (mass gain): between 0 and 80% relative humidity, DVS, 25° C.
# Protocol: Sorption isotherms were obtained using a SMS DVS Intrinsic moisture sorption analyser, controlled by DVS Intrinsic Control software v1.0.0.30. The sample temperature was maintained at 25° C. by the instrument controls. The humidity was controlled by mixing streams of dry and wet nitrogen, with a total flow rate of 200 mL/min. The relative humidity was measured by a calibrated Rotronic probe (dynamic range of 1.0-100% RH), located near the sample. The weight change, (mass relaxation) of the sample as a function of % RH was constantly monitored by the microbalance (accuracy±0.005 mg). Typically 5-20 mg of sample was placed in a tared mesh stainless steel basket under ambient conditions. The sample was loaded and unloaded at 40% RH and 25° C. (typical room conditions). The standard isotherm was performed at 25° C. at 10% RH intervals over a 0-90% RH range. Data analysis was undertaken in Microsoft Excel using DVS Analysis Suite v6.0.0.7.
# Hygroscopicity of Form A was determined by moisture adsorption and desorption.
# [4] = fed vs fasted, healthy adult males, 20 mg Compound A
smiles,measurement,setting,value
"CO[C@H]1CC[C@H](N2C(=O)CNc3ncc(-c4ccc(C(C)(C)O)nc4)nc32)CC1 [Compound A, 7-(6-(2-hydroxypropan-2-yl)pyridin-3-yl)-1-((trans)-4-methoxycyclohexyl)-3,4-dihydropyrazino[2,3-b]pyrazin-2(1H)-one]",CL/F,[1]; Fasted (n = 11),19.9 L/h
same,CL/F,"[1]; Fed (n = 11, high fat meal)",16.7 L/h
same,decrease in Cmax with a high fat meal,[1]; [4],~17%
same,increase in overall exposure (AUCinf) with a high fat meal,[1]; [4],~20%
same,Tmax,"[1]; Fasted (n = 11), healthy adult males",1 h
same,AUC(0-inf),[1]; Fasted (n = 11),1000 ng·h/mL
same,Cmax,[1]; Fasted (n = 11),182 ng/mL
same,half-life,[1]; Fasted (n = 11),5.3 h
same,AUC(0-t),[1]; Fasted (n = 11),955 ng·h/mL
same,Vd/F,[1]; Fasted (n = 11),151 L
same,AUC(0-inf),"[1]; Fed (n = 11, high fat meal)",1200 ng·h/mL
same,Cmax,"[1]; Fed (n = 11, high fat meal)",156 ng/mL
same,half-life,"[1]; Fed (n = 11, high fat meal)",5.2 h
same,AUC(0-t),"[1]; Fed (n = 11, high fat meal)",1130 ng·h/mL
same,Vd/F,"[1]; Fed (n = 11, high fat meal)",125 L
same,Tmax,"[1]; Fed (n = 11, high fat meal)",3 h
same,CL/F,"[2]; Treatment A: one 20-mg Compound A API-in-capsule, oral, fasted, n = 18, geometric mean",20.3 L/h
same,half-life,"[2]; male, human, plasma, Treatment A: one 20-mg Compound A API-in-capsule, oral, fasted, n = 18, geometric mean",5.7 h
same,Vd/F,"[2]; male, human, plasma, Treatment A: one 20-mg Compound A API-in-capsule, oral, fasted, n = 18, geometric mean, read-out: Vz/F",167 L
same,Tmax,"[2]; male, human, Treatment A: one 20-mg Compound A API-in-capsule, oral, fasted, healthy adult males, n = 18, plasma, median",1.5 h
same,Cmax,"[2]; male, human, Treatment A: one 20-mg Compound A API-in-capsule, oral, fasted, n = 18, plasma, geometric mean",190 ng/mL
same,AUC(0-t),"[2]; male, human, Treatment A: one 20-mg Compound A API-in-capsule, oral, fasted, n = 18, plasma, geometric mean, read-out: AUC0-24",934 ng·h/mL
same,AUC(0-inf),"[2]; male, human, Treatment A: one 20-mg Compound A API-in-capsule, oral, fasted, n = 18, plasma, geometric mean, read-out: AUC0-∞",985 ng·h/mL
same,"pharmacokinetics, tablet formulations vs API in capsule","[2]; single dose 20 mg, healthy adult male subjects",comparable
"CO[C@H]1CC[C@H](N2C(=O)CNc3ncc(-c4ccc(C(C)(C)O)nc4)nc32)CC1 [Form A, 7-(6-(2-hydroxypropan-2-yl)pyridin-3-yl)-1-((trans)-4-methoxycyclohexyl)-3,4-dihydropyrazino[2,3-b]pyrazin-2(1H)-one]",hygroscopicity,[3]; DVS moisture adsorption and desorption,not hygroscopic
same,XRPD diffractogram after full adsorption/desorption cycle,[3]; after DVS cycle,unchanged from the initial Form A
same,water uptake (mass gain),[3],< 0.1 % w/w
same,water uptake (mass gain),[3]; listed as Form A of Compound A,less than 0.1 % w/w
same,weight gain,[3]; increase in humidity from about 0% to about 50% relative humidity at about 25° C.,about 0.1 % w/w
same,weight gain,[3]; increase in humidity from about 0% to about 95% relative humidity at about 25° C.,about 0.3 % w/w
same,mass gain,[3]; increase in humidity from about 80% to about 90% relative humidity,about 0.5 % w/w
